Converted amounts (≈) assume the structure as drawn.
Legend:
[1] = tested on: PC3 prostate cancer cells; assay: MTT assay, PC3; details: Homo sapiens, 72 h; for cytotoxicity at 100 µg/mL: read-out: MTT cell proliferation mortality assay (%) PC3, at 100 μg/ml, 72 h
Source text: (§1) All of the following steps were done in a sterile Laminar flow class II biosafety cabinet (Baker, SG406INT, Sanford, ME, USA). DMEM was used as a suspension medium for breast cancer (MCF7), colorectal cancer (HCT116), prostate cancer (PC3), liver cancer (HePG2), pancreatic cancer (PACA2) and lung cancer (A549), while normal cell line (BJ1) was suspended in DMEM-F12 medium. The selected cell lines were purchased from American Type Culture Collection (ATCC). The media were supplemented with a 1% antimycotic-antibiotic mixture (10,000 µg/ml streptomycin sulfate, 25 µg/ml Amphotericin B, and 10,000 U/ml Potassium Penicillin) and 1% L-glutamine. 10 × 10^4cells/well were seeded in 96 well microtiter plates and incubated for 24 h at 37 ℃ under 5% carbon dioxide using a water-jacketed Carbon dioxide incubator (Sheldon, SCO5A, OR, USA). […] After the incubation time of 72 h, the medium was removed. Afterward, 40 µl MTT salt ([…]) was added to each well and kept for 4 h under the same conditions of 37 °C and 5% carbon dioxide. Finally, 200 μl of 10% Sodium dodecyl sulfate (SDS) in deionized water was added to each well and incubated overnight at 37 °C. The step of SDS addition was done to stop the reaction and dissolve the formed formazan crystals. The absorbance was then measured at a wavelength of 595 nm and the reference wavelength was set at 620 nm using a microplate multi-well reader (Bio-Rad Laboratories Inc., model 3356, California, USA). […] A statistical significance analysis was determined between the samples and the negative control using an independent t-test by SPSS 11 program. Dimethyl sulfoxide (DMSO) was the vehicle that dissolved our synthesized compounds and its concentration in the cells was less than 0.2%. IC50 values were calculated using the GraphPad Prism 6 program. The degree of selectivity of the synthetic compounds was expressed as SI = IC50 of a pure compound in a normal cell line/IC50 of the same pure compound in the cancer cell line, where IC50 is the concentration of the compound required to kill 50% of the cells.

HePG2 liver cancer cells = assay: MTT assay, HePG2; details: Homo sapiens, HepG2, 72 h; for cytotoxicity at 100 µg/mL: read-out: MTT cell proliferation mortality assay (%) HePG2
Source text: as §1

[2] = MTT assay, normal cell line BJ1; type: cell-based; details: human, at 100 μg/ml, read-out: MTT cell proliferation mortality assay (%) BJ1
Source text: as §1

[3] = tested on: PACA2 pancreatic cancer cells; assay: MTT assay, PACA2; details: Homo sapiens, PaCa-2, 72 h; for cytotoxicity at 100 µg/mL: read-out: MTT cell proliferation mortality assay (%) PACA2
Source text: as §1

[4] = tested on: HCT116 colorectal cancer cells; assay: MTT assay, HCT116; details: Homo sapiens, HCT-116, 72 h, read-out: MTT cell proliferation mortality assay (%) HCT116, at 100 μg/ml, 72 h
Source text: as §1

MCF7 breast cancer cells = assay: MTT assay, MCF7; details: for IC50 / cytotoxicity at 100 µg/mL: Homo sapiens, MCF7, 72 h; for IC50: read-out: IC50 MCF7; for cytotoxicity at 100 µg/mL / cytotoxicity: read-out: MTT cell proliferation mortality assay (%) MCF7; for cytotoxicity: at 100 μg/ml, 72 h
Source text: as §1

A549 lung cancer cells = assay: MTT assay, A549; details: for cytotoxicity at 100 µg/mL: read-out: MTT cell proliferation mortality assay (%) A549, at 100 μg/ml, 72 h
Source text: as §1

| Structure (SMILES) | cytotoxicity at 100 µg/mL [1] [%] | IC50 (HePG2 liver cancer cells; read-out: IC50 HePG2) [µg/mL] | cytotoxicity at 100 µg/mL (HePG2 liver cancer cells) [%] | cytotoxicity at 72 h, 100 μg/ml [2] [%] | cytotoxicity at 100 µg/mL [3] [%] | cytotoxicity at 100 µg/mL [4] [%] | IC50 (MCF7 breast cancer cells) [µg/mL] | cytotoxicity at 100 µg/mL (MCF7 breast cancer cells) [%] | cytotoxicity (MCF7 breast cancer cells) [%] | IC50 (A549 lung cancer cells; Homo sapiens, A549, 72 h, read-out: IC50 A549) [µg/mL] | cytotoxicity at 100 µg/mL (A549 lung cancer cells; Homo sapiens, A549, 72 h) [%] | cytotoxicity (A549 lung cancer cells; read-out: MTT cell proliferation mortality assay (%) A549, at 100 μg/ml, 72 h) [%] | IC50 ([3]; read-out: IC50 PACA2) [µg/mL] | IC50 ([1]; read-out: IC50 PC3) [µg/mL] |
| --- | --- | --- | --- | --- | --- | --- | --- | --- | --- | --- | --- | --- | --- | --- |
| NNc1nc(C(Cl)(Cl)Cl)nc2c1c(-c1ccc(Br)cc1)c(Cl)n2-c1ccc(Cl)cc1Cl [Compound 15, 5-(4-bromophenyl)-6-chloro-7-(2,4-dichlorophenyl)-4-hydrazineyl-2-(trichloromethyl)-7H-pyrrolo[2,3-d]pyrimidine] | 65.9 ± 2.4 | 29.1 ± 0.5 (≈ 48.4 µM) | 100 | 4.5 ± 0.3 | 100 | 100 | 42.8 ± 0.6 (≈ 71.2 µM) | 81.2 ± 0.8 | 80 to 95 | 54 ± 1.7 (≈ 89.9 µM) | 80 to 90 | 84.6 ± 0.4 | – | – |
| COc1ccc(-c2cn(-c3ccc(Cl)cc3Cl)c3nc[nH]c(=O)c23)cc1OC [Compound 3b, 7-(2,4-dichlorophenyl)-5-(3,4-dimethoxyphenyl)-3,7-dihydro-4H-pyrrolo[2,3-d]pyrimidin-4-one] | 15.6 ± 1.3 | – | 10.4 ± 1.7 | 3.5 ± 0.9 | 76.3 ± 1.8 | 14.6 ± 0.1 | – | 11.5 ± 0.8 | – | – | 8.5 ± 0.6 | – | 69.7 ± 1.3 (≈ 167 µM) | – |
| COc1ccc(-c2c(Cl)n(-c3ccc(Cl)cc3Cl)c3ncnc(N4CCCC4)c23)cc1OC [Compound 11b, 6-chloro-7-(2,4-dichlorophenyl)-5-(3,4-dimethoxyphenyl)-4-(pyrrolidin-1-yl)-7H-pyrrolo[2,3-d]pyrimidine] | 94.6 ± 1.3 | – | 63.1 ± 0.5 | 56.9 ± 0.1 | 25.6 ± 0.9 | 33.5 ± 0.4 | 48.4 ± 0.8 (≈ 96.1 µM) | 80.4 ± 1.8 | 80 to 95 | – | 11.6 ± 0.9 | – | – | 27.7 ± 0.1 (≈ 55 µM) |
| Clc1ccc(-n2c(Cl)c(-c3ccc(Br)cc3)c3c(N4CCOCC4)ncnc32)c(Cl)c1 [Compound 18a, 4-(5-(4-bromophenyl)-6-chloro-7-(2,4-dichlorophenyl)-7H-pyrrolo[2,3-d]pyrimidin-4-yl)morpholine] | 2.1 ± 0.6 | – | 16.4 ± 1.6 | 3.2 ± 1.5 | 31 ± 1.3 | 54.2 ± 1.2 | – | 41.2 ± 1.5 | – | – | 22.7 ± 0.9 | – | – | – |
